# Read-outs that look alike come from different tables or passages of the source. Starred links: 1 amine or outer side, 2 acyl side, 3 side chain; linkers in the order of their positions; H or OH if unused. Positions of bridges follow the written chain, without caps; N, C: chain ends. Non-standard residues stand in square brackets, D forms with d. Residues, ends and D or L forms follow the SMILES beside them. *: point of attachment. TBMB = c1c(C[*:1])cc(C[*:3])cc1C[*:2]; Palmitoyl = CCCCCCCCCCCCCCCC(=O)*; Benzoyl(3-I) = O=C(c1cccc(I)c1)*; 4Abz = Nc1ccc(C(=O)O)cc1
# Test: Biodistribution in U-87 MG tumor-bearing mice
# Assay type: in vivo, BALB/c nu-nu mice
# Conditions: male, BALB/c nu-nu, mouse, iv, 37 kBq, total radioactivity; for tissue uptake at 5 min: 5 min after i.v. administration; for tissue uptake at 5 min / tissue uptake at 0.5 h / tissue uptake at 1 h / tissue uptake at 2 h / tissue uptake at 6 h / tissue uptake at 12 h / tissue uptake at 24 h: U-87 MG-bearing mice, mean ± SD, n = 3; for tissue uptake at 0.5 h: 30 min after i.v. administration; for tissue uptake at 1 h: 1 h after i.v. administration; for tissue uptake at 2 h: 2 h after i.v. administration; for tissue uptake at 6 h: 6 h after i.v. administration; for tissue uptake at 12 h: 12 h after i.v. administration; for tissue uptake at 24 h: 24 h after i.v. administration
# Protocol: Animal experiments were performed in compliance with institutional animal care regulations, with the study protocol approved by the Experimental Animal Committee of Osaka Medical and Pharmaceutical University (Approval Numbers: 21–76, 22–76, and 23–76). Four-week-old male BALB/c nu-nu mice (Japan SLC, Shizuoka, Japan) were housed under a 12 h light/12 h dark cycle with free access to food and water. Tumor-bearing mice were established by suspending U-87 MG cells (2 × 10^6 cells/mouse) in PBS(–) and subcutaneously injecting 100 μL of the suspension into the right hind leg. For co-implantation models, A549 cells (2 × 10^6 cells/mouse) were suspended in PBS(–) and inoculated (100 μL) into the left hind leg of the same mice already inoculated with U-87 MG cells. Mice with tumor size approximately 10 mm in diameter, 4–5 weeks after inoculation, were used for biodistribution studies. Animals in which either tumor was not viable were excluded from the experiment.
# U-87 MG-bearing mice (n = 42, 8–9 weeks old; 22–27 g) were randomly assigned into groups and administered [^125I]bcRGDpal or [^125I]bcRGDiba via intravenous injection (37 kBq in 100 μL of PBS containing 0.1% Tween 80 (PBS-T80)). At 5 min, 30 min, 1 h, 2 h, 6 h, 12 h, or 24 h post-injection, the mice were euthanized (n = 3 per time point). The heart, kidneys, liver, brain, pancreas, spleen, lung, small intestine, large intestine, muscle, skin, stomach, bone, and tumors were excised. Each organ’s weight and radioactivity were measured by a NaI well-type scintillation counter, and the % ID/g was calculated. To investigate the correlation between integrin expression and radioactivity accumulation, biodistribution at 2 h after administration of [^125I]bcRGDpal or [^125I]bcRGDiba was assessed in A549 and U-87 MG co-implantation mice (n = 5) using the same procedure. Additionally, co-implantation mice were injected with [^125I]bcRGDdimer (37 kBq/100 μL PBS-T80) and euthanized at 30 min, 2 h, and 4 h post-injection (n = 4 per time point), and % ID/g values were calculated as described above. The minimum sample size needed for the biodistribution study in U-87 MG-bearing mice was calculated using G Power software version 3.1.9.7. The calculation was based on a two-tailed test, with an effect size of 3.9, a significance level (α) of 0.05, and a statistical power (1 − β) of 0.8. […] The minimum required sample size for the biodistribution study in A549 and U-87 MG co-implantation mice was also calculated to be four animals per group (effect size = 2.5, α = 0.05, 1 − β = 0.8). To guarantee objective results, the experiment was carried out in a blinded manner. Specifically, drug administration and radioactivity measurements were conducted by different investigators to eliminate potential bias.
# [1] = U-87 MG tumor, read-out: Radioactivity in U-87 MG tumor
# [2] = blood, read-out: Radioactivity in blood
# [3] = bone, read-out: Radioactivity in bone
# [4] = brain, read-out: Radioactivity in brain
# [5] = heart, read-out: Radioactivity in heart
# [6] = kidneys, read-out: Radioactivity in kidneys
# [7] = large intestine, read-out: Radioactivity in large intestine
# [8] = liver, read-out: Radioactivity in liver
structure (smiles),measurement,setting,value
CCCCCCCCCCCCCCCC(=O)N[C@@H](CCCCNC(=O)c1cccc(I)c1)C(=O)N1CCC[C@H]1C(=O)N1CCC[C@H]1C(=O)N1CCC[C@H]1C(=O)N[C@@H](CO)C(=O)NCC(=O)Nc1ccc(C(=O)N[C@@H](CO)C(=O)NCC(=O)N[C@H]2CSCc3cc4cc(c3)CSC[C@@H](NC(=O)[C@H](CCC(N)=O)NC(=O)[C@@H]3CCCN3C(=O)[C@H](Cc3c[nH]cn3)NC2=O)C(=O)N[C@@H](CCCNC(=N)N)C(=O)NCC(=O)N[C@@H](CC(=O)O)C(=O)N[C@@H](C(N)=O)CSC4)cc1 [[^125I]bcRGDpal] (Palmitoyl-K(Benzoyl(3-I))PPPSG[4Abz]SGCHPQ[dC]RGD[dC]-NH2; linker 10-14-18 via TBMB),tissue uptake at 5 min,[1],1.4 ± 0.2 %ID/g
same,tissue uptake at 0.5 h,[1],3.4 ± 0.5 %ID/g
same,tissue uptake at 1 h,[1],4 ± 0.5 %ID/g
same,tissue uptake at 2 h,[1],3.9 ± 0.2 %ID/g
same,tissue uptake at 6 h,[1],2.1 ± 0.4 %ID/g
same,tissue uptake at 12 h,[1],0.9 ± 0.1 %ID/g
same,tissue uptake at 24 h,[1],0.3 ± 0.1 %ID/g
same,tissue to tissue ratio,"U-87 MG tumor/blood, all time points (5 min to 24 h)",< 1
same,tissue uptake at 5 min,[2],15.6 ± 1 %ID/g
same,tissue uptake at 0.5 h,[2],12.2 ± 0.8 %ID/g
same,tissue uptake at 1 h,[2],9.9 ± 0.5 %ID/g
same,tissue uptake at 2 h,[2],7.8 ± 0.4 %ID/g
same,tissue uptake at 6 h,[2],4.5 ± 0.4 %ID/g
same,tissue uptake at 12 h,[2],2 ± 0.3 %ID/g
same,tissue uptake at 24 h,[2],0.5 %ID/g
same,tissue uptake at 5 min,[3],1.4 ± 0.1 %ID/g
same,tissue uptake at 0.5 h,[3],1.7 ± 0.6 %ID/g
same,tissue uptake at 1 h,[3],1.1 ± 0.3 %ID/g
same,tissue uptake at 2 h,[3],1.3 ± 0.4 %ID/g
same,tissue uptake at 6 h,[3],0.7 ± 0.1 %ID/g
same,tissue uptake at 12 h,[3],0.4 %ID/g
same,tissue uptake at 24 h,[3],0.1 ± 0.1 %ID/g
same,tissue uptake at 5 min,[4],0.5 ± 0.1 %ID/g
same,tissue uptake at 0.5 h,[4],0.3 ± 0.1 %ID/g
same,tissue uptake at 1 h,[4],0.3 %ID/g
same,tissue uptake at 2 h,[4],0.2 %ID/g
same,tissue uptake at 6 h,[4],0.1 %ID/g
same,tissue uptake at 12 h,[4],0.1 %ID/g
same,tissue uptake at 5 min,[5],6.6 ± 0.1 %ID/g
same,tissue uptake at 0.5 h,[5],4.7 ± 0.4 %ID/g
same,tissue uptake at 1 h,[5],4.3 ± 0.3 %ID/g
same,tissue uptake at 2 h,[5],3.1 ± 0.2 %ID/g
same,tissue uptake at 6 h,[5],1.7 %ID/g
same,tissue uptake at 12 h,[5],0.8 ± 0.1 %ID/g
same,tissue uptake at 24 h,[5],0.2 %ID/g
same,tissue uptake at 5 min,[6],9 ± 0.2 %ID/g
same,tissue uptake at 0.5 h,[6],8.3 ± 0.9 %ID/g
same,tissue uptake at 1 h,[6],7.7 ± 0.2 %ID/g
same,tissue uptake at 2 h,[6],6.7 ± 0.6 %ID/g
same,tissue uptake at 6 h,[6],4.2 ± 0.6 %ID/g
same,tissue uptake at 12 h,[6],1.7 ± 0.2 %ID/g
same,tissue uptake at 24 h,[6],0.4 %ID/g
same,tissue uptake at 5 min,[7],0.9 ± 0.1 %ID/g
same,tissue uptake at 0.5 h,[7],1.4 ± 0.2 %ID/g
same,tissue uptake at 1 h,[7],1.4 ± 0.1 %ID/g
same,tissue uptake at 2 h,[7],6.9 ± 1.1 %ID/g
same,tissue uptake at 6 h,[7],11.8 ± 2 %ID/g
same,tissue uptake at 12 h,[7],7.5 ± 0.8 %ID/g
same,tissue uptake at 24 h,[7],2.3 ± 1.1 %ID/g
same,tissue uptake at 5 min,[8],17.6 ± 0.9 %ID/g
same,tissue uptake at 0.5 h,[8],19 ± 2.1 %ID/g

# Source: article PMC12030627, “Radioiodinated Bicyclic RGD Peptide Derivatives for Enhanced Tumor Accumulation” (Pharmaceuticals, 2025)
